From PMC10304221, “Pharmacokinetic and Biomarker Quantification Studies on Vancomycin-Loaded PEGylated Liposomes and Its Potential to Reduce Vancomycin-Induced Kidney Injury: A Rat Study” (Pharmaceutics, 2023)
Counter-ions that a name gives are not always drawn.

Columns and labels:
[1] = stated in the chemicals section, no method or reference given, cited from earlier work
Description: The 0.9% NaCl (Sing-Tong, Taiwan), Acetonitrile (CAN; Fisher Scientific U.K. Ltd., Loughborough, England), Bupivacaine (Marcaine®; AstraZeneca, Cambridge, UK), formic acid (FA; Merck, Germany), DMSO (Merck, Darmstadt, Germany), Ketalar injection (50 mg/mL; Pfizer, New York, NY, USA), methanol (MeOH; AENCORE, Australia), PBS (Sigma, USA), pentobarbital (Health-Tech Pharmaceutical Co., Ltd., Taiwan), Rompun injection (2%; Bayer, Leverkusen, Germany), and sodium heparin bodene (Pty) (Limited Trading as Intramed, Maharashtra, India). Acetonitrile, chloroform, and methanol VWR International (Radno ...

[2] = Plasma pharmacokinetics of vancomycin in rats, LC-MS/MS with non-compartmental analysis; conditions: rat plasma
[3] = day three, 150 mg/kg IV 3 min infusion qd x3, NCA, LC-MS/MS, mean, n = 6

## CN[C@H](CC(C)C)C(=O)N[C@H]1C(=O)N[C@@H](CC(N)=O)C(=O)N[C@H]2C(=O)N[C@H]3C(=O)N[C@H](C(=O)N[C@H](C(=O)O)c4cc(O)cc(O)c4-c4cc3ccc4O)[C@H](O)c3ccc(c(Cl)c3)Oc3cc2cc(c3O[C@@H]2O[C@H](CO)[C@@H](O)[C@H](O)[C@H]2O[C@H]2C[C@](C)(N)[C@H](O)[C@H](C)O2)Oc2ccc(cc2Cl)[C@H]1O [Vancomycin Hydrochloride, Vancomycin hydrochloride]
[1]; acetone, ether, chloroform
  Solubility in acetone, ether, and chloroform: insoluble
[1]; methanol
  Solubility in methanol: moderately soluble
[1]; water
  Solubility in water: more than 100 mg/mL
[2]; day one at 0.5 and 1 h, day three at 1, 2 and 4 h, 150 mg/kg IV qd x3, n = 3, p ≤ 0.05, Tukey's two-way ANOVA
  Reduction in plasma vancomycin concentration compared to the PEG-VANCO-lipo group: 2–5 fold
[2]; day three, 150 mg/kg IV 3 min infusion qd x3, NCA (WinNonlin), LC-MS/MS, mean, n = 6
  t1/2: 13.26 h
[2]; [3]
  AUCINF: 1461.44 µg·h/mL
  C0 (initial concentration estimated by back-extrapolation): 186.69 µg/mL
  CL: 1.7533 mL/min/kg
  MRT: 17.073 h
